# In US10294230B2, “3,3-difluoropiperidine carbamate heterocyclic compounds as NR2B NMDA receptor antagonists” (Rugen Holdings (Cayman) Limited, priority 2015, dated 2019):
# System: electroconvulsive threshold (tonic convulsions)
# Assay: Electroconvulsive Threshold Test (ECT)
# Format: in vivo, rats
# Conditions: rats, 3, 10 and 30 mpk p.o., mesylate salt
# Protocol: Test compound E1-8.2 was administered as the free base.
# Rats were administered ECS (rectangular current: 0.6 ms pulse width, 1.5 s duration, 200 Hz) via earclip electrodes connected to a constant current shock generator (Ugo Basile: type 7801). Test compounds were administered by oral gavage (p.o.) 1 hour before the test at a dose volume of 5 mL/kg.
# Treatment groups of 20 rats were exposed to ECS as follows: The first animal was exposed to 30 mA of ECS. […] (increases of 5 mA) until the first tonic convulsion was observed. Once the first tonic convulsion was observed, the intensity of ECS was decreased by 2 mA for the next animal and then decreased or increased by 2 mA from animal to animal depending on whether the previous animal convulsed or not. If the first animal did convulse (tonic convulsions) within 5 seconds, animal no2 is exposed to 25 mA, etc. . . . (decreases of 5 mA) until the absence of tonic convulsions was observed. At this point, the intensity of ECS was increased by 2 mA for the next animal and then decreased or increased by 2 mA from animal to animal depending on whether the previous animal convulsed or not. The minimum current intensity applied is 5 mA and the maximum 95 mA. The first 5 animals serve to approach threshold current and were not included in the analysis. The results are presented as the mean current intensity administered to the final 15 animals of a group. The test was performed blind. A positive percent change indicates an anticonvulsant effect. A negative percent change indicates a proconvulsant effect. The test substance was evaluated at 4 doses, typically using 0.5% dimethylsulfoxide, 4% hydroxypropyl-b-cyclodextrin water as a vehicle, and administered p.o. 60 minutes before ECS, and compared with a vehicle control group. Diazepam (16 mg/kg p.o.), administered under the same experimental conditions, was used as reference substance. The experiment included 6 groups. Data with the test substance was analyzed by comparing treated groups with vehicle control using one-way ANOVA followed by Dunnett's t tests.
structure (smiles),measurement,value
"Cc1ccc(COC(=O)N2CC[C@H](CNc3nccn4cnnc34)C(F)(F)C2)cc1 [Compound E1-1.2, (+)-R-4-methylbenzyl 4-(([1,2,4]triazolo[4,3-a]pyrazin-8-ylamino)methyl)-3,3-difluoropiperidine-1-carboxylate]","electroconvulsive threshold, pro-/anticonvulsant activity",robust anticonvulsant activity
